Patent publication US20100305074A1, “NIACIN-BASED PHARMACEUTICAL COMPOSITIONS” (priority 2007, published 2010)

Legend:
[1] = system: patients with debilitating flushing on sustained-release niacin therapy; assay: Prevention of flushing in patients on sustained-release niacin therapy (Examples 1 and 3); type: in vivo, human; details: thirteen patients initiating sustained-release niacin; Aspirin 81 mg for prevention of flushing
[2] = system: patients who developed hyperuricemia while on niacin therapy; assay: Hyperuricemia on niacin therapy controlled with allopurinol (Example 7); details: daily dosing 25 to 200 mg to control hyperuricemia
Procedure: Two females and 15 males were given allopurinol to control the hyperuricemia (daily dosing ranged from 25 to 200 mg).

[3] = system: patients with niacin-induced pruritis; assay: Treatment of niacin-induced pruritis with an H-1 blocking agent (Example 6); type: in vivo, human; details: among the seven successful patients; morning dosing (cetrizine, fexofenadine) or evening dosing (diphenhydramine)
Procedure: Nine patients with niacin-induced pruritis were treated by recommending an H-1 blocking agent.

[4] = system: men with low HDL and coronary artery disease; details: in combination with other lipid medications; HATS trial, N Engl J Med 345:1583-1592; cited from earlier work

In the case of `CC(=O)Oc1ccccc1C(=O)O` [Aspirin], the flushing despite prevention [1] is reported as “continued to have debilitating flushing”.
With `Oc1ncnc2[nH]ncc12` [allopurinol] the “continuation of niacin therapy” value [2] was “All were able to continue niacin therapy”.
For `O=C(O)COCCN1CCN(C(c2ccccc2)c2ccc(Cl)cc2)CC1` (stereo not drawn) [cetrizine], the “effect on niacin-induced pruritis” value [3] was “resolution of pruritis”.
For `CN(C)CCOC(c1ccccc1)c1ccccc1` [diphenhydramine], the “effect on niacin-induced pruritis” value [3] was “resolution of pruritis”.
For `CC(C)(C(=O)O)c1ccc(C(O)CCCN2CCC(C(O)(c3ccccc3)c3ccccc3)CC2)cc1` (stereo not drawn) [fexofenadine], the “effect on niacin-induced pruritis” value [3] was “resolution of pruritis”.
For `O=C(O)c1cccnc1` [niacin, 3-pyridinecarboxylic acid], the “lowering of the incidence of cardiovascular events (heart attacks, strokes, and sudden death)” value [4] is listed as 60-90%.
